Experiments:
Type in all cases: in vivo
[1] = system: redroot pigweed (Amaranthus retroflexus, AMARE); assay: Test A pre-emergence, redroot pigweed; settings: after 13 d
Procedure, shortened: (§1)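 Each compound is applied pre-emergence at 15.625, 62.5 or 250 g/ha, one day after seeds are sown in standard soil. Plants are then grown in a glasshouse at 24/16° C. with 14 h light and 65% humidity, and injury is scored 0–100 at 13 d.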

[2] = system: velvetleaf (Abutilon theophrasti, ABUTH); assay: Test A pre-emergence, velvetleaf; settings: after 13 d
Procedure, shortened: as §1

wheat = assay: Test D pre-emergence, wheat seed treated with a herbicide safener; settings: 100=total damage, 0=no damage
Procedure, shortened: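 Seeds treated with herbicide safener; sown in soil; glasshouse, 16 h light, 65% humidity. Sprayed day 1 (pre) or ~day 12 (post). Spray in 0.2% v/v adjuvant. Scored 0–100 damage: 20 DAA pre, 15 d post.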

plants = assay: Test D post-emergence, other plants of Tables D2 and D4; settings: "Cereals" Postemergent, evaluated after 15 d
Procedure, shortened: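 Damage was rated visually from 0 (none) to 100 (total), at 20 DAA for pre-emergence and 15 d for post-emergence. Plants grew from safener-treated seed in a glasshouse at 24/18° C. or 20/16° C. day/night, 65% humidity, watered twice daily.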

With `CCn1nc([C@@H]2CN(C)C(=O)[C@H]2C(=O)Nc2cccc(F)c2F)c2cccc(F)c21` [Compound 14] the “damage to plant (100=total damage; 0=no damage) AMARE” value ([1]; Pre-Emergence at 15.625 g/ha) was 0, the “damage to plant (100=total damage; 0=no damage) AMARE” value ([1]; Pre-Emergence at 62.5 g/ha) was 0 and the “damage to plant (100=total damage; 0=no damage) AMARE” value ([1]; Pre-Emergence at 250 g/ha) was 0. The “damage to plant (100=total damage; 0=no damage) ABUTH” value ([2]; Pre-Emergence at 15.625 g/ha) was 0, the “damage to plant (100=total damage; 0=no damage) ABUTH” value ([2]; Pre-Emergence at 62.5 g/ha) was 0 and the “damage to plant (100=total damage; 0=no damage) ABUTH” value ([2]; Pre-Emergence at 250 g/ha) was 0. For the same compound, the “damage to plant, TRZAW” value (wheat; rate 15, 20 DAA) was 0, the “damage to plant, TRZAW” value (wheat; rate 30, 20 DAA) was 0 and the “damage to plant, TRZAW” value (wheat; rate 60, 20 DAA) was 0. The “damage to plant, TRZAW” value (wheat; rate 130, 20 DAA) was 0, the “damage to plant, TRZAW” value (wheat; rate 250, 20 DAA) was 60 and the “damage to plant, TRZAW” value (wheat; rate 500, 20 DAA) was 90. For the same compound, the “ALOMY damage rating (100=total damage to plant; 0=no damage to plant)” value (plants; Rates 130) was 40, the “ALOMY damage rating (100=total damage to plant; 0=no damage to plant)” value (plants; Rates 250) was 60 and the “ALOMY damage rating (100=total damage to plant; 0=no damage to plant)” value (plants; Rates 500) was 70. The “AVEFA damage rating (100=total damage to plant; 0=no damage to plant)” value (plants; Rates 130) was 30, the “AVEFA damage rating (100=total damage to plant; 0=no damage to plant)” value (plants; Rates 250) was 70 and the “AVEFA damage rating (100=total damage to plant; 0=no damage to plant)” value (plants; Rates 500) was 80. The “BEAVA damage rating (100=total damage to plant; 0=no damage to plant)” value (plants; Rates 130) was 30, the “BEAVA damage rating (100=total damage to plant; 0=no damage to plant)” value (plants; Rates 250) was 30 and the “BEAVA damage rating (100=total damage to plant; 0=no damage to plant)” value (plants; Rates 500) was 20. For the same compound, the “BROTE damage rating (100=total damage to plant; 0=no damage to plant)” value (plants; Rates 130) was 0, the “BROTE damage rating (100=total damage to plant; 0=no damage to plant)” value (plants; Rates 250) was 10 and the “BROTE damage rating (100=total damage to plant; 0=no damage to plant)” value (plants; Rates 500) was 30. For the same compound, the “BRSNN damage rating (100=total damage to plant; 0=no damage to plant)” value (plants; Rates 130) was 40, the “BRSNN damage rating (100=total damage to plant; 0=no damage to plant)” value (plants; Rates 250) was 50 and the “BRSNN damage rating (100=total damage to plant; 0=no damage to plant)” value (plants; Rates 500) was 40. The “CHEAL damage rating (100=total damage to plant; 0=no damage to plant)” value (plants; Rates 130) was 50, the “CHEAL damage rating (100=total damage to plant; 0=no damage to plant)” value (plants; Rates 500) was 40 and the “GALAP damage rating (100=total damage to plant; 0=no damage to plant)” value (plants; Rates 130) was 0. The “GALAP damage rating (100=total damage to plant; 0=no damage to plant)” value (plants; Rates 250) was 10, the “GALAP damage rating (100=total damage to plant; 0=no damage to plant)” value (plants; Rates 500) was 20 and the “HORVW damage rating (100=total damage to plant; 0=no damage to plant)” value (plants; Rates 130) was 20. For the same compound, the “HORVW damage rating (100=total damage to plant; 0=no damage to plant)” value (plants; Rates 250) was 70, the “HORVW damage rating (100=total damage to plant; 0=no damage to plant)” value (plants; Rates 500) was 70 and the “KCHSC damage rating (100=total damage to plant; 0=no damage to plant)” value (plants; Rates 130) was 10. For the same compound, the “KCHSC damage rating (100=total damage to plant; 0=no damage to plant)” value (plants; Rates 250) was 20, the “KCHSC damage rating (100=total damage to plant; 0=no damage to plant)” value (plants; Rates 500) was 20 and the “LOLPE damage rating (100=total damage to plant; 0=no damage to plant)” value (plants; Rates 130) was 0. The “LOLPE damage rating (100=total damage to plant; 0=no damage to plant)” value (plants; Rates 250) was 20, the “LOLPE damage rating (100=total damage to plant; 0=no damage to plant)” value (plants; Rates 500) was 50 and the “POAAN damage rating (100=total damage to plant; 0=no damage to plant)” value (plants; Rates 130) was 80. For the same compound, the “POAAN damage rating (100=total damage to plant; 0=no damage to plant)” value (plants; Rates 250) was 90, the “POAAN damage rating (100=total damage to plant; 0=no damage to plant)” value (plants; Rates 500) was 90 and the “POLCO damage rating (100=total damage to plant; 0=no damage to plant)” value (plants; Rates 130) was 20. The “POLCO damage rating (100=total damage to plant; 0=no damage to plant)” value (plants; Rates 250) was 30, the “POLCO damage rating (100=total damage to plant; 0=no damage to plant)” value (plants; Rates 500) was 40 and the “STEME damage rating (100=total damage to plant; 0=no damage to plant)” value (plants; Rates 250) was 50. The “STEME damage rating (100=total damage to plant; 0=no damage to plant)” value (plants; Rates 500) was 70.

From patent publication US20220281848A1, “PYRAZOLE-SUBSTITUTED PYRROLIDINONES AS HERBICIDES” (FMC Corporation, priority 2019, published 2022)
